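Following 48 hours of exposure in 96-well plates, responses at five concentrations were used to interpolate endpoints linearly. The concentration for 50% growth inhibition is given as GI50.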 The source made the active and inactive calls. Rule as the data show it: active = GI50 up to about 1.1 µM and inactive = higher.
Assays:
Test in all cases: growth of human tumour cells (NCI), 48 h
SNB-78 = system: SNB-78
DMS-273 = system: DMS-273
XF498 = system: XF498
LXFL 529 = system: LXFL 529
KM-20L2 = system: KM-20L2
HOP-18 = system: HOP-18
DMS-114 = system: DMS-114
M19-MEL = system: M19-MEL
RXF 631 = system: RXF 631

Measured: GI50

O=C(/C=C/c1ccccc1F)C(c1ccccc1)c1ccccc1
inactive: SNB-78 5.93 µM | DMS-273 3.85 µM | XF498 1.99 µM | LXFL 529 3.37 µM | KM-20L2 3.8 µM

O=C(Cc1nc2ccccc2o1)C(=O)Nc1ccc(Cl)cc1Cl
inactive: SNB-78 > 100 µM | DMS-273 > 100 µM | HOP-18 > 100 µM | DMS-114 > 100 µM | LXFL 529 > 100 µM | KM-20L2 > 100 µM | M19-MEL > 100 µM

O=C1CCCCC1CN1CCCC1 (stereo unspecified)
inactive: SNB-78 > 100 µM | DMS-273 > 100 µM | DMS-114 > 100 µM | XF498 > 100 µM | LXFL 529 > 100 µM | KM-20L2 > 100 µM | M19-MEL > 100 µM

CN(C)c1ccc(N=O)c(O)c1.CN(C)c1ccc(N=O)c(O)c1.[SiH4]
inactive: HOP-18 12.1 µM | DMS-114 3.72 µM | XF498 9.4 µM | LXFL 529 5.64 µM | KM-20L2 4.65 µM | M19-MEL 5.56 µM

CC(C)c1cccc(C(C)C)c1N1C(=O)C(=O)C(c2nc3ccccc3o2)C(=O)C1=O
inactive: SNB-78 > 100 µM | DMS-273 68.2 µM | DMS-114 24.5 µM | XF498 38.5 µM | RXF 631 > 100 µM | LXFL 529 42.2 µM | KM-20L2 79.1 µM | M19-MEL 63.4 µM

COc1cc2c(cc1OC)C(C#N)(Cc1ccccc1)N(C(=O)c1ccccc1)C=C2 (stereo unspecified)
inactive: SNB-78 > 100 µM | DMS-273 60.7 µM | HOP-18 > 100 µM | DMS-114 17.6 µM | XF498 8.15 µM | RXF 631 45.3 µM | LXFL 529 39.4 µM | KM-20L2 67.3 µM | M19-MEL 96.6 µM

COC(=O)C1=C(SC)SC2(C(=O)OC)C3C=C(C)C4C(N13)C42C(=O)OC (stereo unspecified)
inactive: DMS-273 > 100 µM | DMS-114 > 100 µM | LXFL 529 > 100 µM | KM-20L2 > 100 µM | M19-MEL > 100 µM

COc1cc(/C=C2\C(=O)N(C(=O)Cc3ccccc3)N=C2C)cc(OC)c1OC
inactive: SNB-78 > 100 µM | DMS-273 > 100 µM | HOP-18 > 100 µM | DMS-114 > 100 µM | XF498 > 100 µM | M19-MEL > 100 µM

CCSc1nc(-c2ccc(OC)cc2)c(C#N)c(=O)n1C1OCC(OC(C)=O)C(OC(C)=O)C1OC(C)=O (stereo unspecified)
inactive: SNB-78 > 100 µM | DMS-273 > 100 µM | HOP-18 30 µM | DMS-114 72.4 µM | LXFL 529 44.6 µM | KM-20L2 > 100 µM | M19-MEL > 100 µM

C/C(C=O)=C1\C(O)C[C@]1(C)C1CC(C)(C)CC1O (stereo partly specified)
inactive: SNB-78 > 100 µM | DMS-273 > 100 µM | DMS-114 39.1 µM | LXFL 529 57.1 µM | KM-20L2 > 100 µM | M19-MEL > 100 µM

COC1=CC(O)(CC(N)=O)c2ccccc2C1=O (stereo unspecified)
inactive: SNB-78 > 100 µM | DMS-273 > 100 µM | HOP-18 > 100 µM | DMS-114 > 100 µM | XF498 > 100 µM | RXF 631 > 100 µM | LXFL 529 > 100 µM | KM-20L2 > 100 µM | M19-MEL > 100 µM

Cc1ccc(Sc2cc([N+](=O)[O-])cc(Sc3ccc(C)cc3)c2Sc2ccc(C)cc2)cc1
inactive: SNB-78 > 100 µM | DMS-273 > 100 µM | DMS-114 > 100 µM | XF498 > 100 µM | LXFL 529 > 100 µM | KM-20L2 > 100 µM | M19-MEL > 100 µM

C/C(CC(=O)NCCc1ccccc1)=N\NS(=O)(=O)c1ccc(C)cc1
inactive: SNB-78 > 100 µM | DMS-273 > 100 µM | DMS-114 > 100 µM | XF498 > 100 µM | RXF 631 > 100 µM | LXFL 529 > 100 µM | KM-20L2 > 100 µM | M19-MEL > 100 µM

CCOC(=O)/C(=C\c1ccc(O)c(OC)c1)C(=O)c1ccccc1
inactive: SNB-78 2.56 µM | HOP-18 38.9 µM | XF498 27.6 µM | LXFL 529 10.6 µM | KM-20L2 > 41.7 µM | M19-MEL 20.8 µM

From ChEMBL document CHEMBL1201862, “PubChem BioAssay data set” (2004)
